Measurements taken from patent US12522594B2, “2-heteroaryl-3-oxo-2,3-dihydropyridazine-4-carboxamides for the treatment of cancer” (Deutsches Krebsforschungszentrum, priority 2017, dated 2026).
pIC50: −log10 of the molar value.

Assays:
AHR [1] = target: T1, AHR (Homo sapiens, UniProt P35869); assay: In vitro assay 1: antagonism in human cell line (transactivation assay, U87 cells prestimulated with kynurenic acid, DRE firefly luciferase reporter); type: cell-based; design: host or cells: U87 glioblastoma cells, stably transfected with DRE firefly luciferase and renilla reporter constructs; conditions: 150 uM kynurenic acid, 20 hours, read-out: Assay 1: AHR-luc Hum Antagonism IC50
T1 sequence (P35869 11-848): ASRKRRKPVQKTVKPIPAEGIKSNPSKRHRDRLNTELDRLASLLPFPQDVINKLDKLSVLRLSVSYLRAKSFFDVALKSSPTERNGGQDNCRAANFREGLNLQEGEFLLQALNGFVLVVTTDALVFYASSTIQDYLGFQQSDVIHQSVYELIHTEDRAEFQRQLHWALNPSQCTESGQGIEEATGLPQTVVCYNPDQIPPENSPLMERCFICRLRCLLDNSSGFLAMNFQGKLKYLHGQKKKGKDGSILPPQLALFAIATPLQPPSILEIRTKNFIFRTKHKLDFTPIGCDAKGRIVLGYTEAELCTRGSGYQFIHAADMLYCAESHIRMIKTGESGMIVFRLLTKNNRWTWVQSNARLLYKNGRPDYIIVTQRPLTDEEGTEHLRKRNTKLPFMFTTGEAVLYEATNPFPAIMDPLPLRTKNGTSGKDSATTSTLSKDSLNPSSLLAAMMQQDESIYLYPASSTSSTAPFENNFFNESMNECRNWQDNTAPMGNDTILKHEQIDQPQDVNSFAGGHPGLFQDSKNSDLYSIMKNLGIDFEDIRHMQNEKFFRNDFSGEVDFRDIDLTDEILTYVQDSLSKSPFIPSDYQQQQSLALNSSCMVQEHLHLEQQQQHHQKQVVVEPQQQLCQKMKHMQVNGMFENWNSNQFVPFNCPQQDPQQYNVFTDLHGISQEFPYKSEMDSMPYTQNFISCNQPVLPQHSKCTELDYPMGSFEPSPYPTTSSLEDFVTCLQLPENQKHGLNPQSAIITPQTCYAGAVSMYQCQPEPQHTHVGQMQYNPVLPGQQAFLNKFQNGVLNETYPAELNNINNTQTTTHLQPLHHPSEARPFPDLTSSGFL
Procedure, shortened: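 Antagonism measured after kynurenic acid prestimulation in U87 cells that express AHR endogenously and stably harbor a firefly luciferase gene under DRE control plus a constitutive renilla construct. Positive and negative controls served for normalization.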

AHR [2] = target: T1, AHR; assay: In vitro assay 2: agonism in human cell line (transactivation assay, U87 cells, DRE firefly luciferase reporter); type: cell-based; design: host or cells: U87 glioblastoma cells, stably transfected with DRE firefly luciferase and renilla reporter constructs; conditions: no kynurenic acid, 20 hours, read-out: Assay 2: AHR-luc Hum Agonism IC50
Procedure, shortened: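 Agonist readout: DRE firefly luciferase, with constitutive renilla reporter, in stably transfected U87 cells expressing AHR endogenously. Normalization used positive control (300 uM kynurenic acid) and negative control.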

Row | SMILES | pIC50 (AHR [1]) | pIC50 (AHR [2])
1 | CC(C)(O)CNC(=O)c1cc(-c2ccc(Cl)cc2)nn(-c2cnoc2)c1=O [Example 269, 6-(4-Chlorophenyl)-N-(2-hydroxy-2-methylpropyl)-2-(1,2-oxazol-4-yl)-3-oxo-2,3-dihydropyridazine-4-carboxamide] | 7.21 | < 4.70
2 | Cn1cc(-n2nc(-c3ccc(Cl)cc3)cc(C(=O)NC[C@H](O)CF)c2=O)cn1 [Example 270, 6-(4-Chlorophenyl)-N-[(2S)-3-fluoro-2-hydroxypropyl]-2-(1-methyl-1H-pyrazol-4-yl)-3-oxo-2,3-dihydropyridazine-4-carboxamide] | 7.19 | < 4.70
3 | O=C(N[C@H](CO)C(F)(F)F)c1cc(-c2ccc(Cl)cc2)nn(-c2cncnc2)c1=O [Example 271, 6-(4-Chlorophenyl)-3-oxo-2-(pyrimidin-5-yl)-N-[(2R)-1,1,1-trifluoro-3-hydroxypropan-2-yl]-2,3-dihydropyridazine-4-carboxamide] | 7.14 | < 4.70
4 | C[C@@H](CO)NC(=O)c1cc(-c2ccc(Cl)cc2)nn(-c2cnn(C(F)F)c2)c1=O [Example 272, 6-(4-Chlorophenyl)-2-[1-(difluoromethyl)-1H-pyrazol-4-yl]-N-[(2S)-1-hydroxypropan-2-yl]-3-oxo-2,3-dihydropyridazine-4-carboxamide] | 7.04 | < 4.70
5 | O=C(N[C@H](CO)C1CC1)c1cc(-c2ccc(Cl)cc2)nn(-c2cncnc2)c1=O [Example 273, 6-(4-Chlorophenyl)-N-[(1S)-1-cyclopropyl-2-hydroxyethyl]-3-oxo-2-(pyrimidin-5-yl)-2,3-dihydropyridazine-4-carboxamide] | 7.00 | < 4.70
6 | COC(=O)[C@@H](CO)NC(=O)c1cc(-c2ccc(Cl)cc2)nn(-c2cccnc2)c1=O [Example 274, Methyl N-{[6-(4-chlorophenyl)-3-oxo-2-(pyridin-3-yl)-2,3-dihydropyridazine-4-yl]carbonyl}-D-serinate] | 6.95 | < 4.70
7 | Cn1cc(-n2nc(-c3ccc(CF)cc3)cc(C(=O)N[C@H](CO)C(F)(F)F)c2=O)cn1 [Example 275, 6-[4-(Fluoromethyl)phenyl]-2-(1-methyl-1H-pyrazol-4-yl)-3-oxo-N-[(2R)-1,1,1-trifluoro-3-hydroxypropan-2-yl]-2,3-dihydropyridazine-4-carboxamide] | 6.89 | < 4.70
8 | C[C@H](NC(=O)c1cc(-c2ccc(Cl)cc2)nn(-c2cn[nH]c2)c1=O)C(C)(C)O [Example 276, 6-(4-Chlorophenyl)-N-[(2S)-3-hydroxy-3-methylbutan-2-yl]-3-oxo-2-(1H-pyrazol-4-yl)-2,3-dihydropyridazine-4-carboxamide] | 6.88 | < 4.70
9 | CC(C)(O)CNC(=O)c1cc(-c2ccc(Cl)cc2)nn(-c2cncnc2)c1=O [Example 277, 6-(4-Chlorophenyl)-N-(2-hydroxy-2-methylpropyl)-3-oxo-2-(pyrimidin-5-yl)-2,3-dihydropyridazine-4-carboxamide] | 6.86 | < 4.70
10 | CC(C)(O)CNC(=O)c1cc(-c2ccc(Cl)cc2)nn(-c2cnn(C(F)F)c2)c1=O [Example 278, 6-(4-Chlorophenyl)-2-[1-(difluoromethyl)-1H-pyrazol-4-yl]-N-(2-hydroxy-2-methylpropyl)-3-oxo-2,3-dihydropyridazine-4-carboxamide] | 6.85 | < 4.70
11 | C[C@H](CO)NC(=O)c1cc(-c2ccc(Cl)cc2)nn(-c2cncnc2)c1=O [Example 279, 6-(4-Chlorophenyl)-N-[(2R)-1-hydroxypropan-2-yl]-3-oxo-2-(pyrimidin-5-yl)-2,3-dihydropyridazine-4-carboxamide] | 6.77 | < 4.70
12 | O=C(NC[C@H](O)C(F)(F)F)c1cc(-c2ccc(CF)cc2)nn(-c2cccnc2)c1=O [Example 280, 6-[4-(Fluoromethyl)phenyl]-3-oxo-2-(pyridin-3-yl)-N-[(2S)-3,3,3-trifluoro-2-hydroxypropyl]-2,3-dihydropyridazine-4-carboxamide] | 6.75 | < 4.70
13 | O=C(N[C@H](CO)C(F)(F)F)c1cc(-c2ccc(CF)cc2)nn(-c2cccnc2)c1=O [Example 282, 6-[4-(Fluoromethyl)phenyl]-3-oxo-2-(pyridin-3-yl)-N-[(2R)-1,1,1-trifluoro-3-hydroxypropan-2-yl]-2,3-dihydropyridazine-4-carboxamide] | 6.52 | < 4.70
14 | Cn1cc(-n2nc(-c3ccc(CF)cc3)cc(C(=O)NC[C@H](O)C(F)(F)F)c2=O)cn1 [Example 283, 6-[4-(Fluoromethyl)phenyl]-2-(1-methyl-1H-pyrazol-4-yl)-3-oxo-N-[(2S)-3,3,3-trifluoro-2-hydroxypropyl]-2,3-dihydropyridazine-4-carboxamide] | 6.37 | < 4.70
15 | C[C@H](NC(=O)c1cc(-c2ccc(CF)cc2)nn(-c2cnn(C)c2)c1=O)C(C)(C)O [Example 284, 6-[4-(Fluoromethyl)phenyl]-N-[(2S)-3-hydroxy-3-methylbutan-2-yl]-2-(1-methyl-1H-pyrazol-4-yl)-3-oxo-2,3-dihydropyridazine-4-carboxamide] | 6.24 | < 4.70

Stronger by pIC50 (AHR [1]), values ahead:

Row | pIC50 (AHR [1]) | pIC50 (AHR [2]) | SMILES
16 | 7.59 | < 4.70 | O=C(NC[C@H](O)C(F)(F)F)c1cc(-c2ccc(Cl)cc2)nn(-c2cnn(C(F)F)c2)c1=O [Example 256, 6-(4-Chlorophenyl)-2-[1-(difluoromethyl)-1H-pyrazol-4-yl]-3-oxo-N-[(2S)-3,3,3-trifluoro-2-hydroxypropyl]-2,3-dihydropyridazine-4-carboxamide]
17 | 7.58 | < 4.70 | COC[C@@H](CO)NC(=O)c1cc(-c2ccc(C(F)(F)F)cc2)nn(-c2cccnc2)c1=O [Example 257, N-[(2R)-1-Hydroxy-3-methoxypropan-2-yl]-3-oxo-2-(pyridin-3-yl)-6-[4-(trifluoromethyl)phenyl]-2,3-dihydropyridazine-4-carboxamide]
18 | 7.55 | < 4.70 | O=C(N[C@H](CO)C1CC1)c1cc(-c2ccc(Cl)cc2)nn(-c2cncc(F)c2)c1=O [Example 259, 6-(4-Chlorophenyl)-N-[(1S)-1-cyclopropyl-2-hydroxyethyl]-2-(5-fluoropyridin-3-yl)-3-oxo-2,3-dihydropyridazine-4-carboxamide]
19 | 7.48 | < 4.70 | C[C@@H](CO)NC(=O)c1cc(-c2ccc(C(F)(F)F)cc2)nn(-c2cnn(C(F)F)c2)c1=O [Example 261, 2-[1-(Difluoromethyl)-1H-pyrazol-4-yl]-N-[(2S)-1-hydroxypropan-2-yl]-3-oxo-6-[4-(trifluoromethyl)phenyl]-2,3-dihydropyridazine-4-carboxamide]
20 | 7.39 | < 4.70 | CC(C)(O)CNC(=O)c1cc(-c2ccc(C(F)(F)F)cc2)nn(-c2cnn(C(F)F)c2)c1=O [Example 262, 2-[1-(Difluoromethyl)-1H-pyrazol-4-yl]-N-(2-hydroxy-2-methylpropyl)-3-oxo-6-[4-(trifluoromethyl)phenyl]-2,3-dihydropyridazine-4-carboxamide]
21 | 7.38 | < 4.70 | O=C(NCC1(O)CC1)c1cc(-c2ccc(Cl)cc2)nn(-c2cccnc2)c1=O [Example 263, 6-(4-Chlorophenyl)-N-[(1-hydroxycyclopropyl)methyl]-3-oxo-2-(pyridin-3-yl)-2,3-dihydropyridazine-4-carboxamide]
22 | 7.31 | < 4.70 | C[C@@H](NC(=O)c1cc(-c2ccc(Cl)cc2)nn(-c2cncnc2)c1=O)C(C)(C)O [Example 265, 6-(4-Chlorophenyl)-N-[(2R)-3-hydroxy-3-methylbutan-2-yl]-3-oxo-2-(pyrimidin-5-yl)-2,3-dihydropyridazine-4-carboxamide]
23 | 7.25 | < 4.70 | CC(C)(O)CNC(=O)c1cc(-c2ccc(C(F)(F)F)cc2)nn(-c2cn[nH]c2)c1=O [Example 266, N-(2-Hydroxy-2-methylpropyl)-3-oxo-2-(1H-pyrazol-4-yl)-6-[4-(trifluoromethyl)phenyl]-2,3-dihydropyridazine-4-carboxamide]
24 | 7.24 | < 4.70 | COC(=O)[C@@H](CO)NC(=O)c1cc(-c2ccc(Cl)cc2)nn(-c2cnn(C)c2)c1=O [Example 267, Methyl N-{[6-(4-chlorophenyl)-2-(1-methyl-1H-pyrazol-4-yl)-3-oxo-2,3-dihydropyridazine-4-yl]carbonyl}-D-serinate]
